# Tests used:
# aldose reductase [1] = conditions: literature report; cited from earlier work
# aldose reductase [2] = biological target: T1, aldose reductase (Bos taurus, UniProt P16116); assay: in vitro aldose reductase inhibition (modified Hayman and Kinoshita procedure; enzyme from bovine lens); format: biochemical; conditions: read-out: % Inhibition At Different Molar Concentrations (in vitro); for inhibition at 10 µM: molar concentration 10^-5; for inhibition at 1 µM: molar concentration 10^-6; for inhibition at 0.1 µM: molar concentration 10^-7
# T1 construct: preparation of the enzyme from bovine lens; from tissue; host or cells: bovine lens
# Protocol: In the present case the procedure of Hayman and Kinoshita is modified in that the final chromatography step is omitted in the preparation of the enzyme from bovine lens. The following results were obtained when the foregoing listed compounds of formula I were evaluated in the above in vitro test.
# [3] = hygroscopicity of the salt; format: physicochemical; conditions: disodium salt
inhibition at 10 µM (aldose reductase [2]) [%],inhibition at 1 µM (aldose reductase [2]) [%],inhibition at 0.1 µM (aldose reductase [2]) [%],hygroscopicity [3],Compound,aldose reductase inhibition (in words) (aldose reductase [1])
–,–,–,–,"O=C(O)CN1C(=O)c2cccc3cccc(c23)C1=O [1,3-Dioxo-1H-benz[de]isoquinoline-2(3H)-acetic acid]",effective inhibitor of aldose reductase
80,37,13,–,O=C(O)C[n+]1cc(C(=O)O)c2cccccc1-2 [3-Carboxy-1-(carboxymethyl)-cyclohepta[b]pyrrolium Chloride],–
88,82,44,–,"O=C(O)Cn1c2cccccc-2c(C(=O)O)c1=O [Example 2, 3-Carboxy-1,2-dihydro-2-oxocyclohepta[b]pyrrole-1-acetic Acid]",–
80,45,9,–,"O=C(O)Cn1c2cccccc-2cc1=O [Example 3, 1,2-Dihydro-2-oxocyclohepta[b]pyrrole-1-acetic Acid]",–
73,26,–,–,"CCOC(=O)c1c2cccccc-2n(CC(=O)O)c1=O [Example 4, 3-(Ethoxycarbonyl)-1,2-dihydro-2-oxocyclohepta[b]pyrrole-1-acetic Acid]",–
93,85,47,–,"O=C(O)Cn1c2cccccc-2c(C(=O)O)c1=S [Example 5, 3-Carboxy-1,2-dihydro-2-thioxocyclohepta[b]pyrrole-1-acetic Acid]",–
75,44,9,–,"CC(C)(C)C(=O)OCOC(=O)Cn1c2cccccc-2c(C(=O)OCOC(=O)C(C)(C)C)c1=O [Example 6, 1,2-Dihydro-3-[(2,2-dimethyl-1-oxopropoxy)methoxycarbonyl]-2-oxo-cyclohepta[b]pyrrole-1-acetic Acid (2,2-Dimethyl-1-oxopropoxy)methyl Ester]",–
76,26,3,–,"CC(=O)c1c2cccccc-2n(CC(=O)O)c1=O [Example 7, 3-Acetyl-1,2-dihydro-2-oxocyclohepta[b]pyrrole-1-acetic Acid]",–
60,19,–,–,"CCc1c2cccccc-2n(CC(=O)O)c1=O [Example 8, 3-Ethyl-1,2-dihydro-2-oxocyclohepta[b]pyrrole-1-acetic Acid]",–
85,78,36,–,"O=C(O)Cn1c2ccc(Cl)ccc-2c(C(=O)O)c1=O [Example 9, 3-Carboxy-6-chloro-1,2-dihydro-2-oxocyclohepta[b]pyrrole-1-acetic Acid]",–
76,34,9,–,"CCOC(=O)c1c2ccc(Cl)ccc-2n(CC(=O)O)c1=O [Example 10, 6-Chloro-3-(ethoxycarbonyl)-1,2-dihydro-2-oxocyclohepta[b]pyrrole-1-acetic Acid]",–
85,52,11,–,"CC(=O)c1c2ccc(Cl)ccc-2n(CC(=O)O)c1=O [Example 11, 3-Acetyl-6-chloro-1,2-dihydro-2-oxocyclohepta[b]pyrrole-1-acetic Acid]",–
88,82,48,–,"N#Cc1c2cccccc-2n(CC(=O)O)c1=O [Example 12, 3-Cyano-1,2-dihydro-2-oxocyclohepta[b]pyrrole-1-acetic Acid]",–
73,28,7,–,"NC(=O)c1c2cccccc-2n(CC(=O)O)c1=O [Example 13, 3-(Aminocarbonyl)-1,2-dihydro-2-oxocyclohepta[b]pyrrole-1-acetic Acid]",–
–,–,–,hydroscopic,"CN(CC(=O)O)C(=O)c1c2ccc(Cl)ccc-2n(CC(=O)O)c1=O [Example 15, 6-Chloro-3-[(N-carboxymethyl-N-methyl)amino]carbonyl-1,2-dihydro-2-oxocyclohepta[b]pyrrole-1-acetic Acid]",–
–,–,–,–,"O=C1NC(=O)[C@@]2(CCOc3ccc(F)cc32)N1 [sorbinil, (S)-6-Fluoro-2,3-dihydrospiro(4H-1-benzopyran-4,4'-imidazolidine)-2',5'-dione]",aldose reductase inhibiting properties

# From patent US4337265A, “Cyclohepta[b]pyrrole derivatives” (Ayerst, McKenna & Harrison Inc., priority 1981, dated 1982)
